Assay results published in patent publication US10314894B2, “Treatment of cardio-renal disease using PCSK6” (THE CLEVELAND CLINIC FOUNDATION, priority 2014, dated 2019).
Peptide text beside a SMILES is read from it.

System: corin activation cleavage
Experiment: Protease inhibitors on corin activation cleavage in HEK293 cells expressing corin (Western blotting)
Format: cell-based, human
Settings: 24 h, transfected HEK293 cells
Description: HEK293 cells were cultured in DMEM with 10% fetal bovine serum (FBS). HL-1 cardiomyocytes were cultured in Claycomb medium with 10% FBS, and 4 mM L-glutamine. All cells were cultured at 37° C. in humidified incubators with 5% CO2.
HEK293 and HL-1 cells were transfected with corin or PCSK6 expression plasmids. After 48-72 h, cells were lysed in a buffer containing 25 mM Tris-HCl, pH 7.4, 150 mM NaCl, 1 mM EDTA, 1% (v/v) NP-40, and 1% (v/v) protease inhibitor cocktail. Recombinant corin and PCSK6 proteins were immunoprecipitated with an anti-V5 or anti-flag antibody. Western blotting was carried out to analyze corin expression and activation or PCSK6 expression with or without reducing agents. Percentage of corin activation (corin-p vs. corin fragments) was quantified by densitometric analysis of Western blots.
To identify the corin activator, corin activation cleavage was examined in HEK293 and HL-1 cells expressing corin in the presence of protease inhibitors including benzamidine (5 mM), GM6001 (50 μM), dec-RVKR-cmk (20 μM), or ALLM (N-acetyl-leucyl-leucyl-methionine 50 μM). Liao et al., J Biol Chem 282, 27728-27735 (2007). The inhibitors were added to the cells in separate wells. After 24 h, cell lysates were prepared and corin protein was analyzed by Western blotting.

| Structure (SMILES) | corin activation (~40-kDa band reduced, ~190-kDa zymogen band increased) (benzamidine 5 mM) | corin activation (~40-kDa band reduced, ~190-kDa zymogen band increased) (dec-RVKR-cmk 20 μM) | corin activation (~40-kDa band reduced, ~190-kDa zymogen band increased) (dec-RVKR-cmk 20 μM, listed as RVKR-cmk) |
| --- | --- | --- | --- |
| N=C(N)c1ccccc1 [benzamidine] | corin activation cleavage was inhibited |  |  |
| CCCCCCCCCC(=O)N[C@@H](CCCN=C(N)N)C(=O)N[C@H](C(=O)N[C@@H](CCCCN)C(=O)N[C@@H](CCCN=C(N)N)C(=O)CCl)C(C)C [dec-RVKR-cmk] (HELM PEPTIDE1{[CCCCCCCCCC(=O)[*:2]].R.V.K.R.[ClC[*:1]]}$$$$V2.0) |  | corin activation was inhibited | corin activation cleavage was inhibited |
